Measurements from PMC12663294 (Nature Communications, 2025).
Like-named read-outs stand apart in the source and are kept apart here.

Key:
[1] = system: active serine hydrolases (FP-reactive bands, ~62–70 kDa) in An. gambiae homogenates; format: biochemical, Anopheles gambiae (Kisumu strain)
[2] = target: T1, recombinant An. coluzzii Coeae6g (Anopheles coluzzii, UniProt A0A6E8VQK1); experiment: Insecticide inhibition of α-NA hydrolysis by recombinant Coeae6g; format: biochemical; details: for IC50 (μΜ) (95% CI) of α-NA hydrolysis: 10 min pre-incubation, α-NA at Km, Sf9 homogenate expressing Coeae6g
T1 sequence (A0A6E8VQK1 1-582): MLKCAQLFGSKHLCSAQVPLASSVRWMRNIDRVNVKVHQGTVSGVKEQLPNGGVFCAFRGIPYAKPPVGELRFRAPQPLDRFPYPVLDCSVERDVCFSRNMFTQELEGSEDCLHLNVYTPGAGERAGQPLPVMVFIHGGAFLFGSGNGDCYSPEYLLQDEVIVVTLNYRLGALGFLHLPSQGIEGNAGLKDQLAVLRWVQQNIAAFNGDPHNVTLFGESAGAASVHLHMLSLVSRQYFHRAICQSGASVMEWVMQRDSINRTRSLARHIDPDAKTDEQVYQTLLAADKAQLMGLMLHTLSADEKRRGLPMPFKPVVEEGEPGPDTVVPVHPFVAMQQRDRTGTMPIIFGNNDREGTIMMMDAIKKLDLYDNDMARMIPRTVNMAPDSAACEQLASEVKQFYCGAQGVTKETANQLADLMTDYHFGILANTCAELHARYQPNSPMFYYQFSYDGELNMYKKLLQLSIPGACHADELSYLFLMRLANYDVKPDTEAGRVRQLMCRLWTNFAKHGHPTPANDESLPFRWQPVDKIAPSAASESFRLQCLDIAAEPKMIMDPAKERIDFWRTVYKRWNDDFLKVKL

[3] = system: GAL4/UAS-AngCoeae6g mosquitoes; experiment: WHO tube/adult bioassays; set-up: species or system Anopheles gambiae; details: in vivo
[4] = system: GAL4/UAS-AncCoeae6g mosquitoes; experiment: WHO tube/adult bioassays
[5] = target: T1, recombinant An. coluzzii Coeae6g; format: biochemical; details: for Km: read-out: Km (95% CI); for Km / Vmax (95% CI): substrate of recombinant Coeae6g (Sf9-Coeae6g); for fold increased esterase activity compared to YFP-expressing and uninfected Sf9 cells: resuspended cell pellets expressing Coeae6g
[6] = system: whole extracts of An. gambiae Coeae6g overexpressing mosquitoes; experiment: Total esterase activity of whole mosquito extracts towards model substrates; format: biochemical, Anopheles gambiae
[7] = system: GAL4/UAS-AncCoeae6g mosquitoes; details: in vivo
[8] = system: A11 parental line mosquitoes; experiment: WHO tube/adult bioassays; format: in vivo, Anopheles gambiae; details: exposure for 10 and 15 min, three replicates

CCN(CC)c1nc(C)cc(OP(=S)(OC)OC)n1 [PM, pirimiphos-methyl]
T-FP labelling of distinct ~90 kDa band [1]: not affected
T-FP labelling of prominent bands at ~62–70 kDa [1]: markedly reduced
IC50 ([1]; read-out: IC₅₀ (FP-TAMRA labelled ~62–70 kDa band intensity)): ~10.6 µM
IC50 (μΜ) (95% CI) of α-NA hydrolysis [2]: No inhibition
Mortality rate [3]: 67%
Mortality rate ([4]; in vivo): 79%

CCOC(=O)CC(SP(=S)(OC)OC)C(=O)OCC (centres unmarked) [Malathion, malathion]
IC50 [2]: > 45 µM
IC50 (μΜ) (95% CI) of α-NA hydrolysis [2]: No inhibition

CC(=O)Oc1ccc2ccccc2c1 [β-NA, β-naphthyl acetate]
Km [5]: 369 µM
fold increased esterase activity compared to YFP-expressing and uninfected Sf9 cells [5]: 8-12 fold
Vmax (95% CI) [5]: 253.0 nmol min^−1 mg total protein^−1
fold higher total carboxylesterase activity than control parental mosquitoes [6]: 2.3 fold

CCOC(=O)CC(SP(=O)(OC)OC)C(=O)OCC (centres unmarked) [Malaoxon, malaoxon]
IC50 [2]: 0.24 µM

CC(=O)Oc1cccc2ccccc12 [α-NA, α-naphthyl acetate]
Km [5]: 68.5 µM
fold increased esterase activity compared to YFP-expressing and uninfected Sf9 cells [5]: 8-12 fold
Vmax (95% CI) [5]: 307.7 nmol min^−1 mg total protein^−1

CC(=O)Oc1ccc([N+](=O)[O-])cc1 [p-NPA, p-nitrophenyl acetate]
fold increased esterase activity compared to YFP-expressing and uninfected Sf9 cells [5]: 8-12 fold
fold higher total carboxylesterase activity than control parental mosquitoes [6]: 2.9 fold

CNC(=O)Oc1ccccc1OC(C)C [Propoxur, propoxur]
IC50 [2]: 3.52 µM

CC1(C)C(C=C(Cl)Cl)C1C(=O)OCc1cccc(Oc2ccccc2)c1 (centres unmarked) [Permethrin, permethrin]
IC50 [2]: 130 µM
Mortality rate [7]: 81.8%

CC1(C)[C@H](C(=O)O[C@H](C#N)c2cccc(Oc3ccccc3)c2)[C@@H]1C=C(Br)Br [Deltamethrin, deltamethrin]
Mortality [8]: 100%
IC50 [2]: > 450 µM
IC50 (μΜ) (95% CI) of α-NA hydrolysis [2]: no inhibition
Mortality ([4]; exposure for 10 and 15 min, three replicates): 100%

CNC(=O)Oc1cccc2c1OC(C)(C)O2 [Bendiocarb, bendiocarb]
IC50 [2]: 7.27 µM
